Data reported in PubChem BioAssay AID248 (DTP/NCI, 2004).
“And” between values parts separate entries of the source, which are not always exact repeats. Equal values may be shown once. Toxic doses and inconclusive results are not listed. Cut-off read from the data, not from the text of the source: active = T/C of 150% or more; inactive = T/C below 125%. Peptide text beside a SMILES is read from it. * marks the point of attachment. Boc = CC(C)(C)OC(=O)*

System: L1210 leukemia ip in BDF1 mice, survival T/C
Assay: NCI In Vivo Anticancer Drug Screen. Data for tumor model L1210 Leukemia (intraperitoneal) in B6D2F1 (BDF1) mice
Conditions: higher = longer survival
Experimental: The antitumor activity of compounds was measured in mice bearing transplantable tumors. Survival or tumor size were measured and the results are expressed as the measurement made in the treated group (T) divided by the measurement made in the vehicle treated control group (C). The tumor model used in this assay is L1210 Leukemia (intraperitoneal) in B6D2F1 (BDF1) mice

[1] = endpoint: mean survival time, dose: 100.0 mg/kg/injection, schedule: Q04DX002 (ip), vehicle: Klucel (hydroxypropylcellulose) (HPC)
[2] = endpoint: mean survival time, dose: 200.0 mg/kg/injection, schedule: Q04DX002 (ip), vehicle: Klucel (hydroxypropylcellulose) (HPC)
[3] = endpoint: mean survival time, dose: 400.0 mg/kg/injection, schedule: Q04DX002 (ip), vehicle: Klucel (hydroxypropylcellulose) (HPC)
[4] = endpoint: mean survival time, dose: 100.0 mg/kg/injection, schedule: Q01DX001 (ip), vehicle: saline
[5] = endpoint: mean survival time, dose: 200.0 mg/kg/injection, schedule: Q01DX001 (ip), vehicle: saline
[6] = endpoint: mean survival time, dose: 100.0 mg/kg/injection, schedule: Q04DX003 (ip), vehicle: Klucel (hydroxypropylcellulose) (HPC)
[7] = endpoint: mean survival time, dose: 100.0 mg/kg/injection, schedule: Q04DX003 (ip), vehicle: saline
[8] = endpoint: mean survival time, dose: 200.0 mg/kg/injection, schedule: Q04DX003 (ip), vehicle: saline
[9] = endpoint: mean survival time, dose: 400.0 mg/kg/injection, schedule: Q04DX003 (ip), vehicle: saline

Measured: T/C

O=C(O)C1CC(O)CN1 (configuration not stated)
inactive: endpoint: mean survival time, dose: 12.5 mg/kg/injection, schedule: Q04DX002 (ip), vehicle: saline 110 % of control and 107 % of control | endpoint: mean survival time, dose: 25.0 mg/kg/injection, schedule: Q04DX002 (ip), vehicle: saline 106 % of control and 97 % of control | endpoint: mean survival time, dose: 50.0 mg/kg/injection, schedule: Q04DX002 (ip), vehicle: saline 100 % of control and 110 % of control | endpoint: median survival time, dose: 25.0 mg/kg/injection, schedule: Q01DX009 (ip), vehicle: saline 102 % of control | endpoint: median survival time, dose: 50.0 mg/kg/injection, schedule: Q01DX009 (ip), vehicle: saline 103 % of control | endpoint: median survival time, dose: 100.0 mg/kg/injection, schedule: Q01DX009 (ip), vehicle: saline 108 % of control | endpoint: median survival time, dose: 200.0 mg/kg/injection, schedule: Q01DX009 (ip), vehicle: saline 112 % of control | endpoint: median survival time, dose: 400.0 mg/kg/injection, schedule: Q01DX009 (ip), vehicle: saline 114 % of control

CC(C)(C)c1cc([N+](=O)[O-])cc([N+](=O)[O-])c1O
inactive: endpoint: mean survival time, dose: 1.56 mg/kg/injection, schedule: Q01DX009 (ip), vehicle: saline with Tween-80 93 % of control | endpoint: mean survival time, dose: 1.56 mg/kg/injection, schedule: Q04DX003 (ip), vehicle: saline with Tween-80 100 % of control | endpoint: mean survival time, dose: 3.13 mg/kg/injection, schedule: Q01DX009 (ip), vehicle: saline with Tween-80 93 % of control | endpoint: mean survival time, dose: 3.13 mg/kg/injection, schedule: Q04DX003 (ip), vehicle: saline with Tween-80 96 % of control | endpoint: mean survival time, dose: 6.25 mg/kg/injection, schedule: Q01DX009 (ip), vehicle: saline with Tween-80 96 % of control | endpoint: mean survival time, dose: 6.25 mg/kg/injection, schedule: Q04DX003 (ip), vehicle: saline with Tween-80 107 % of control

COC(=O)C(Cc1ccccc1)NC(=O)C(Cc1ccccc1)NC(=O)OC(C)(C)C (stereo not drawn) (Boc-Phe-Phe-OMe; configuration not given here)
inactive: [1] 94 % of control | [2] 101 % of control | [3] 108 % of control

CNc1ccccc1C(=O)N/N=C/c1cccc([N+](=O)[O-])c1
inactive: [1] 93 % of control | [2] 96 % of control | [3] 86 % of control

COC1CCC(/C=C(\C#N)C2CCC([N+](=O)[O-])CC2)CC1 (configuration not stated)
inactive: endpoint: mean survival time, dose: 100.0 mg/kg/injection, schedule: Q04DX002 (ip), vehicle: saline with Tween-80 106 % of control | endpoint: mean survival time, dose: 200.0 mg/kg/injection, schedule: Q04DX002 (ip), vehicle: saline with Tween-80 102 % of control | endpoint: mean survival time, dose: 400.0 mg/kg/injection, schedule: Q04DX002 (ip), vehicle: saline with Tween-80 98 % of control

CS(=O)(=O)c1cc(N2CC2)ncn1
inactive: endpoint: mean survival time, dose: 4.0 mg/kg/injection, schedule: Q01DX015 (ip), vehicle: carboxymethylcellulose (CMC) 96 % of control | endpoint: mean survival time, dose: 8.0 mg/kg/injection, schedule: Q01DX015 (ip), vehicle: carboxymethylcellulose (CMC) 102 % of control | endpoint: mean survival time, dose: 16.0 mg/kg/injection, schedule: Q01DX015 (ip), vehicle: carboxymethylcellulose (CMC) 108 % of control | endpoint: mean survival time, dose: 32.0 mg/kg/injection, schedule: Q01DX015 (ip), vehicle: carboxymethylcellulose (CMC) 113 % of control and 120 % of control | endpoint: mean survival time, dose: 64.0 mg/kg/injection, schedule: Q01DX015 (ip), vehicle: carboxymethylcellulose (CMC) 110 % of control

O=C(c1ccc([N+](=O)[O-])cc1)c1ccc(O)cc1O
inactive: endpoint: mean survival time, dose: 100.0 mg/kg/injection, schedule: Q01DX001 (ip), vehicle: other 101 % of control | endpoint: mean survival time, dose: 100.0 mg/kg/injection, schedule: Q04DX003 (ip), vehicle: other 100 % of control | endpoint: mean survival time, dose: 200.0 mg/kg/injection, schedule: Q01DX001 (ip), vehicle: other 101 % of control | endpoint: mean survival time, dose: 200.0 mg/kg/injection, schedule: Q04DX003 (ip), vehicle: other 101 % of control | endpoint: mean survival time, dose: 400.0 mg/kg/injection, schedule: Q01DX001 (ip), vehicle: other 103 % of control | endpoint: mean survival time, dose: 400.0 mg/kg/injection, schedule: Q04DX003 (ip), vehicle: other 97 % of control

O=C(OC1COC(OC(=O)c2ccc([N+](=O)[O-])cc2)C(OC(=O)c2ccc([N+](=O)[O-])cc2)C1OC(=O)c1ccc([N+](=O)[O-])cc1)c1ccc([N+](=O)[O-])cc1 (configuration not stated)
inactive: [4] 93 % of control | [5] 96 % of control | endpoint: mean survival time, dose: 400.0 mg/kg/injection, schedule: Q01DX001 (ip), vehicle: saline 96 % of control

CCOC(=O)c1ccc(NC(=O)Nc2ccc(F)c([N+](=O)[O-])c2)cc1
inactive: endpoint: mean survival time, dose: 100.0 mg/kg/injection, schedule: Q01DX009 (ip), vehicle: Klucel (hydroxypropylcellulose) (HPC) 95 % of control | endpoint: mean survival time, dose: 200.0 mg/kg/injection, schedule: Q01DX009 (ip), vehicle: Klucel (hydroxypropylcellulose) (HPC) 101 % of control | endpoint: mean survival time, dose: 400.0 mg/kg/injection, schedule: Q01DX009 (ip), vehicle: Klucel (hydroxypropylcellulose) (HPC) 96 % of control

O=C(CC1(O)C(=O)Nc2ccccc21)CC1(O)C(=O)Nc2ccccc21 (configuration not stated)
inactive: endpoint: mean survival time, dose: 100.0 mg/kg/injection, schedule: Q01DX007 (ip), vehicle: Klucel (hydroxypropylcellulose) (HPC) 110 % of control | [6] 100 % of control | endpoint: mean survival time, dose: 200.0 mg/kg/injection, schedule: Q01DX007 (ip), vehicle: Klucel (hydroxypropylcellulose) (HPC) 118 % of control | endpoint: mean survival time, dose: 200.0 mg/kg/injection, schedule: Q04DX003 (ip), vehicle: Klucel (hydroxypropylcellulose) (HPC) 97 % of control | endpoint: mean survival time, dose: 400.0 mg/kg/injection, schedule: Q01DX007 (ip), vehicle: Klucel (hydroxypropylcellulose) (HPC) 103 % of control | endpoint: mean survival time, dose: 400.0 mg/kg/injection, schedule: Q04DX003 (ip), vehicle: Klucel (hydroxypropylcellulose) (HPC) 92 % of control

O=C(O)c1cocc1C(=O)N1Cc2cc3ccccc3nc2C1
inactive: endpoint: mean survival time, dose: 10.0 mg/kg/injection, schedule: Q04DX003 (ip), vehicle: saline 103 % of control | endpoint: mean survival time, dose: 20.0 mg/kg/injection, schedule: Q04DX003 (ip), vehicle: saline 97 % of control | endpoint: mean survival time, dose: 40.0 mg/kg/injection, schedule: Q04DX003 (ip), vehicle: saline 105 % of control | endpoint: mean survival time, dose: 80.0 mg/kg/injection, schedule: Q04DX003 (ip), vehicle: saline 100 % of control | endpoint: mean survival time, dose: 160.0 mg/kg/injection, schedule: Q04DX003 (ip), vehicle: saline 103 % of control

CCCCOc1ccc(Nc2c3ccccc3nc3ccccc23)cc1
inactive: [6] 123 % of control

c1ccc(C2(NC3=NCCO3)CCCCC2)cc1
inactive: endpoint: mean survival time, dose: 10.0 mg/kg/injection, schedule: Q01DX009 (ip), vehicle: Klucel (hydroxypropylcellulose) (HPC) 101 % of control | endpoint: mean survival time, dose: 20.0 mg/kg/injection, schedule: Q01DX009 (ip), vehicle: Klucel (hydroxypropylcellulose) (HPC) 97 % of control | endpoint: mean survival time, dose: 40.0 mg/kg/injection, schedule: Q01DX009 (ip), vehicle: Klucel (hydroxypropylcellulose) (HPC) 101 % of control | endpoint: mean survival time, dose: 75.0 mg/kg/injection, schedule: Q01DX009 (ip), vehicle: Klucel (hydroxypropylcellulose) (HPC) 107 % of control

CC(C)CC(NC(=O)OC(C)(C)C)C(=O)NC(Cc1c[nH]c2ccccc12)C(=O)N1CCCC1C(=O)NCC(N)=O (configuration not stated) (Boc-LWPG-NH2; configuration not given here)
inactive: [7] 93 % of control | [8] 90 % of control | [9] 97 % of control

Cc1ccc(S(=O)(=O)OCC(C)C2CCC3C4CC=C5CC(Cl)CCC5(C)C4CCC23C)cc1 (configuration not stated)
inactive: endpoint: mean survival time, dose: 100.0 mg/kg/injection, schedule: Q01DX001 (ip), vehicle: saline with Tween-80 91 % of control | endpoint: mean survival time, dose: 200.0 mg/kg/injection, schedule: Q01DX001 (ip), vehicle: saline with Tween-80 102 % of control | endpoint: mean survival time, dose: 400.0 mg/kg/injection, schedule: Q01DX001 (ip), vehicle: saline with Tween-80 94 % of control

CNc1cccc([N+](=O)[O-])c1
inactive: [4] 95 % of control | [5] 103 % of control

CN(CCC#N)c1ccc(-c2cc(C(=O)O)c3cc4ccccc4cc3n2)cc1
inactive: [2] 110 % of control | [3] 95 % of control

CC(=O)Nc1ccc(C)c([N+](=O)[O-])c1
inactive: endpoint: mean survival time, dose: 100.0 mg/kg/injection, schedule: Q01DX009 (ip), vehicle: saline 100 % of control | [7] 98 % of control | endpoint: mean survival time, dose: 200.0 mg/kg/injection, schedule: Q01DX009 (ip), vehicle: saline 93 % of control | [8] 93 % of control | endpoint: mean survival time, dose: 400.0 mg/kg/injection, schedule: Q01DX009 (ip), vehicle: saline 97 % of control | [9] 102 % of control
